Source: US20240277717A1, “APPLICATION OF GANCICLOVIR IN PREPAPRATION OF MEDICINE FOR TREATING ALLERGIC RHINITIS” (Union Hospital, Tongji Medical College, Huazhong University …, priority 2023, published 2024)
“Also recorded” adds a separate entry of the source.

How the values were obtained:
[1] = test system: nasal scraping cells; experiment: Transcriptome sequencing (RNA-seq) of nasal scraping cells; assay type: in vivo, human
Description: The scraped mucosal epithelial cells are placed in a TRIzol™ reagent (Invitrogen™) and stored in liquid nitrogen for processing. Library preparation and high-throughput sequencing, data analysis, ribonucleic acid (RNA) sequence and deoxyribonucleic acid (DNA) virus sequence enrichment analysis are performed by Seqhealth Technology Co., Ltd. (China; wuhan). Sample quality analysis is performed by Nanodrop™ OneC spectrophotometer to detect expression at A260 and A280. Qualified samples are finally quantified by QubitR®3.0 fluorometer and Qubit™ RNA broad-range (BR) Assay kits. The original data is first filtered by Trimomatic (Version 0.36). Counting by FeatureCounts, and then calculate reads per kilobase of exon model per million mapped reads (RPKM). Differentially expressed genes between groups are identified using an edgeR package (Version 3.12.1). In analysis, P value<0.05 and fold change (FC) higher than 2 are considered to be significant differences in gene expression between groups.

[2] = test system: peripheral blood mononuclear cells (PBMCs); experiment: GCV medicine test of the PBMCs in vitro (flow cytometry); assay type: cell-based, human; conditions: 400 μM GCV, 48 hours
Description: The peripheral blood of patients with the intractable AR is collected. The peripheral blood mononuclear cells (PBMCs) are isolated within 8 hours using a lymphocyte separation medium (MP biomedicals) and suspended in Roswell Park Memorial Institute (RPMI) 1640 medium (Gibco™) containing 10% heat-inactivated fetal bovine serum (Gibco™, Grand Island) and 1% penicillin and streptomycin (Gibco™) at a density of 1×10^6/mL. Three wells are set for each sample, including: a non treated well (also referred to as NT well), a well adding 1 microliter (μL) dimethyl sulfoxide (DMSO; Solarbio®) (also referred to as DMSO well), and a well adding 400 micromoles per liter (μM) of the GCV (diluted with DMSO, Selleck) (also referred to as GCV well). The PBMCs are cultured in a 24-well cell culture plate (Corning®, NY) under different stimulations in a 5% CO2, 37° C. cell incubator. According to the instructions of Leukocyte Activation Cocktail with BD GolgiPlug™ (BD Bioscience), the PBMCs are added to a cell culture medium 4-6 hours before dyeing to improve the dyeing effect of intracellular cytokines. After 48 hours of cell culture, the cell solution is collected and dyed with anti-human fixable viability stain 510 (FVS-BV510), brilliant violet 605 anti-human cluster of differentiation 4 antibody (CD4-BV605), and […] isothiocyanate isomer I (CD8-FITC), and then dyed with interleukin-4-brilliant violet™ 421 dyes (IL-4-BV421), interleukin-17A-phycoerythrin (IL-17A-PE), human interferon-gamma-PE-cyanine7 dye (IFNγ-PE-Cy7), and FOXP3-BB700 (all from BD Bioscience) after breaking the nucleus with a fixed nuclear breaker (eBioscience™). BD LSRFortessa™ X-20 (BD Biosciences, USA) and FlowJo™ software (FlowJo, Ashland, OR USA) are used for analysis.

[3] = GCV effective group n=6, before vs after, P<0.05 and FC>2
[4] = GCV effective group n=6, nasal scraping cells
[5] = PBMCs of GCV effective and ineffective groups

Question: For `Nc1nc(O)c2ncn(COC(CO)CO)c2n1` [GCV, Ganciclovir], which “genes down-regulated after GCV treatment” value [1, 3] is on record?
Answer: Its value is 160 genes.

Question: What about the “genes up-regulated after GCV treatment” value [1, 3] of the same compound?
Answer: The value was 25 genes.

Question: And the “CXCL9 expression after GCV treatment” value [1, 4]?
Answer: Its value is “up-regulated”.

Question: And the “CXCL10 expression after GCV treatment” value [1, 4]?
Answer: Its value is “up-regulated”.

Question: What about the “MUC5B expression after GCV treatment” value [1, 4] of the same compound?
Answer: Its value is “down-regulated”.

Question: What about the “percentage of CD4+IFNγ+ cells, change” value [2, 5] of the same compound?
Answer: Its value is “no significant change”.

Question: What about the “percentage of CD4+IL4+ cells, change” value [2, 5] of the same compound?
Answer: Its value is “no significant change”.

Question: What about the “percentage of CD4+IL17A+ cells, change” value [2, 5] of the same compound?
Answer: Its value is “no significant change”.

Question: What about the “percentage of CD8+IFNγ+ cells/CD4+, change” value [2, 5] of the same compound?
Answer: The value was “no significant change”.

Question: And the “percentage of CD4+FOXP3+ cells/CD4+ cells, GCV well vs DMSO well” value ([2]; PBMCs of GCV effective group n=26, p<0.001)?
Answer: The value was “significantly increased; also recorded: significantly higher”.

Question: What about the “percentage of CD4+FOXP3+ cells/CD4+ cells, GCV well vs DMSO well” value ([2]; PBMCs of GCV ineffective group n=14, p<0.05) of the same compound?
Answer: The value was “significantly lower”.
